From US8193191B2, “Urotensin II receptor antagonists” (Janssen Pharmaceutica N.V., priority 2006, dated 2012)
Read-outs that look alike come from different tables or passages of the source.

Tests used:
[1] = biological target: T1, Human UII receptor, 6D9 human rhabdomyosarcoma cells (Homo sapiens, UniProt Q9UKP6); assay: Human UII Calcium Mobilization Assay; format: cell-based; details: average value, FLIPR TETRA, read-out: Human UII Ca^+ Mobilization Average IC50
T1 construct: 6D9: isolated by dilution subcloning of RMS13 cells, ATCC® Number: CRL-2061; host or cells: 6D9 human rhabdomyosarcoma cells (subclone of RMS13)
T1 sequence (Q9UKP6 1-389): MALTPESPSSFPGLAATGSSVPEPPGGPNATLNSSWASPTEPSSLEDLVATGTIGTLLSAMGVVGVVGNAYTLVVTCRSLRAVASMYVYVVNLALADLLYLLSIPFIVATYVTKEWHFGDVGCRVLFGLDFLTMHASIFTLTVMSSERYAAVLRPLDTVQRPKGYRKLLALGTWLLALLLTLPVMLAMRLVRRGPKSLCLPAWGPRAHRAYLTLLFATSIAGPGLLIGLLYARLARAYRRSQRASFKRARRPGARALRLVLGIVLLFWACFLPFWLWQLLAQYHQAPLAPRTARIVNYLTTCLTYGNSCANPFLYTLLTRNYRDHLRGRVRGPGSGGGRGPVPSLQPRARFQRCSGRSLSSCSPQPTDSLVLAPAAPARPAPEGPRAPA
Method: 6D9 human rhabdomyosarcoma cells were seeded into tissue culture treated 384-well black-walled clear bottom plates (3712, Corning Incorporated, Corning, N.Y.) at 8,000 cells/well in 25 μL of culture medium, and maintained in an incubator (5% CO2 at 37° C.) for 22 hrs prior to the calcium mobilization assay. 25 μL of dye solution was added to the wells such that the final liquid volume before agonist/antagonist treatment was 50 μL for all assays. The cell plates were incubated at 37° C. for 45 minutes and the fluorescence intensity was measured on a Fluorometric Imaging Plate Reader (FLIPR^TETRA, Molecular Devices, Sunnyvale, Calif.).
Antagonist and agonist U-II were added at room temperature on the FLIPR^TETRA, and the fluorescence intensity before and after addition was measured over a period of 4 minutes. The dye incubation time and temperature as well as instrument setting was adjusted so the fluorescence intensity could be compared between plates on the same day. EC50 and IC50 were analyzed using GraphPad Prism 4 software (GraphPad Software Inc., San Diego, Calif.).
Materials and reagent Preparation: Human Rhabdomyosarcoma cells (6D9: isolated by dilution subcloning of RMS13 cells, ATCC® Number: CRL-2061, American Type Culture Collection ATCC, Manassas, Va.) was maintained in RPMI-1640 medium (30-2001, ATCC, Manassas, Va.) supplemented with 10% (v/v) Fetal Bovine Serum (SH30071.03, Hyclone, Logan, Utah).
Dye preparation: BD™ Calcium Assay Kit (80500-301, BD Biosciences, Rockville, Md.) was prepared according to the manufacture's instruction in 1× Hanks' balanced salt solution (HBSS, 21-023-CV, Mediatech, Inc. Herndon, Va.) containing 20 mM HEPES buffer (25-060-CI, Mediatech, Inc. Herndon, Va.). Final dye loading conditions included 1.25 mM probenecid (P36400, Invitrogen, Carlsbad, Calif.) and 0.01% FBS.
Urantide (PUT-3639-PI, Peptide International, Louisville, Ky.) was prepared in water at 5 mM. For assays, U-II agonist, U-II antagonist and urantide were diluted with HBSS/HEPES containing 0.01% FBS.
Test compounds were dissolved in DMSO at 10 mM concentration. The serial dilutions were carried out in HBSS/HEPES. The highest final DMSO concentration was at 0.1%.

[2] = biological target: T2, rat GPR14 (U-II receptor) (Rattus norvegicus, UniProt P49684); assay: Rat UII Calcium Mobilization FLIPR Assay; format: cell-based; details: average value for the compound tested; read-out: Rat UII FLIPR Average IC50
T2 construct: expressed in transfected cells
T2 sequence (P49684 1-386): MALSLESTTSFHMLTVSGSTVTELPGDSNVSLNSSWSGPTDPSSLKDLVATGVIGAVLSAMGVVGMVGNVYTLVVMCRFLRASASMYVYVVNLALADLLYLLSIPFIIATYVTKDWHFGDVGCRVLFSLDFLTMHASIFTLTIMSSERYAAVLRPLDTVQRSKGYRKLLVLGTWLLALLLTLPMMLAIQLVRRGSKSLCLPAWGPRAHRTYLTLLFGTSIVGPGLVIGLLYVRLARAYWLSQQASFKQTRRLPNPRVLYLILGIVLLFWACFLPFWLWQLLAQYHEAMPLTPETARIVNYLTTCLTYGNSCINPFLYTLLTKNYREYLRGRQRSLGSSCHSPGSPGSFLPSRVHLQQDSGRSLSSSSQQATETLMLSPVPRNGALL
Procedure, shortened: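 CHO cells stably expressing rat U-II receptor, seeded 24 h before assay, were loaded with FLIPR calcium dye in HBSS/20 mM HEPES/0.1% BSA/2.5 mM probenecid, pH 7.4, for 1 h at 37° C. Calcium mobilization then read by FLIPR at 23° C.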

[3] = biological target: T3, endogenous human UII receptor (Homo sapiens, UniProt Q9UKP6); assay: Human Radioligand Binding Assay ((^125I)-U-II binding to human skeletal muscle myoblasts)
T3 sequence (Q9UKP6 1-389): T1 sequence (Q9UKP6 1-389)

[4] = read-out: Human UII Average Binding Ki, average value, (^125I)-U-II binding to human skeletal muscle myoblasts (HSMM), 25° C., 3 h

| Structure (SMILES) | IC50 [1] [nM] | IC50 [2] [nM] | Ki [3] [nM] | Ki [3, 4] [nM] |
| --- | --- | --- | --- | --- |
| COc1ccc(C(CCCNS(=O)(=O)c2c(C)noc2C)N2C(=O)c3cccc(N4CCN([C@H](C)c5ccccc5)CC4)c3C2=O)cc1OC (stereo partly drawn) [Cpd 112, 3,5-dimethyl-isoxazole-4-sulfonic acid (4-(3,4-dimethoxy-phenyl)-4-{1,3-dioxo-4-[4-(1R)-(1-phenyl-ethyl)-piperazin-1-yl]-1,3-dihydro-isoindol-2-yl}-butyl)-amide] | 1400 | 69 | 26 | – |
| COc1ccc(C(CCCNS(=O)(=O)c2cn(C)c(C)n2)N2C(=O)c3cccc(N4CCN([C@H](C)c5ccccc5)CC4)c3C2=O)cc1OC (stereo partly drawn) [Cpd 114, 1,2-dimethyl-1H-imidazole-4-sulfonic acid (4-(3,4-dimethoxy-phenyl)-4-{1,3-dioxo-4-[4-(1R)-(1-phenyl-ethyl)-piperazin-1-yl]-1,3-dihydro-isoindol-2-yl}-butyl)-amide] | 470 | 17 | 11 | – |
| COc1ccc(C(CCCNS(=O)(=O)N(C)C)N2C(=O)c3cccc(N4CCN([C@H](C)c5ccccc5)CC4)c3C2=O)cc1OC (stereo partly drawn) [Cpd 115, N′-[(4-(3,4-dimethoxy-phenyl)-4-{1,3-dioxo-4-[4-(1R)-(1-phenyl-ethyl)-piperazin-1-yl]-1,3-dihydro-isoindol-2-yl}-butyl)]-N,N-dimethyl-sulfamide] | 460 | 28 | 39 | – |
| COc1ccc(C(CCCNS(=O)(=O)Cc2ccccc2)N2C(=O)c3cccc(N4CCN([C@H](C)c5ccccc5)CC4)c3C2=O)cc1OC (stereo partly drawn) [Cpd 117, N-(4-(3,4-dimethoxy-phenyl)-4-{1,3-dioxo-4-[4-(1R)-(1-phenyl-ethyl)-piperazin-1-yl]-1,3-dihydro-isoindol-2-yl}-butyl)-C-phenyl-methanesulfonamide] | 700 | 58 | 32 | – |
| COc1ccc([C@@H](CCCNS(=O)(=O)c2cccs2)N2C(=O)c3cccc(N4CCN([C@H](C)c5ccccc5)CC4)c3C2=O)cc1OC [Cpd 118, (R)-thiophene-2-sulfonic acid (4-(3,4-dimethoxy-phenyl)-4-{1,3-dioxo-4-[4-(1R)-(1-phenyl-ethyl)-piperazin-1-yl]-1,3-dihydro-isoindol-2-yl}-butyl)-amide] | 240 | 29 | – | 49 |
| COc1ccc([C@H](CCCNS(=O)(=O)c2cccs2)N2C(=O)c3cccc(N4CCN([C@H](C)c5ccccc5)CC4)c3C2=O)cc1OC [Cpd 119] | 260 | 69 | – | 120 |
| COc1ccc(C(CCCNS(N)(=O)=O)N2C(=O)c3cccc(N4CCN([C@H](C)c5ccccc5)CC4)c3C2=O)cc1OC (stereo partly drawn) [Cpd 122, N′-[(4-(3,4-dimethoxy-phenyl)-4-{1,3-dioxo-4-[4-(1R)-(1-phenyl-ethyl)-piperazin-1-yl]-1,3-dihydro-isoindol-2-yl}-butyl)]-sulfamide] | 500 | 12 | 120 | – |
| COc1ccc(CC(c2ccc(OC)c(OC)c2)N2C(=O)c3cccc(N4CCN([C@H](C)c5ccccc5)CC4)c3C2=O)cc1OC (stereo partly drawn) [Cpd 123, 2-[1,2-bis-(3,4-dimethoxy-phenyl)-ethyl]-4-[4-(1R)-(1-phenyl-ethyl)-piperazin-1-yl]-isoindole-1,3-dione] | 3100 | 250 | 570 | – |
| COc1ccc([C@@H](CCCNS(=O)(=O)c2sc(C)nc2C)N2C(=O)c3cccc(N4CCN([C@H](C)c5ccccc5)CC4)c3C2=O)cc1OC [Cpd 124, (R)-2,4-dimethyl-thiazole-5-sulfonic acid (4-(3,4-dimethoxy-phenyl)-4-{1,3-dioxo-4-[4-(1R)-(1-phenyl-ethyl)-piperazin-1-yl]-1,3-dihydro-isoindol-2-yl}-butyl)-amide] | 300 | 28 | 320 | – |
| COc1ccc([C@@H](CCCNS(=O)(=O)c2c(C)n[nH]c2C)N2C(=O)c3cccc(N4CCN([C@H](C)c5ccccc5)CC4)c3C2=O)cc1OC [Cpd 125, (R)-3,5-dimethyl-1H-pyrazole-4-sulfonic acid (4-(3,4-dimethoxy-phenyl)-4-{1,3-dioxo-4-[4-(1R)-(1-phenyl-ethyl)-piperazin-1-yl]-1,3-dihydro-isoindol-2-yl}-butyl)-amide] | 47 | 11 | – | 13 |
| COc1ccc([C@@H](CCCNS(=O)(=O)c2cn(C)nc2C)N2C(=O)c3cccc(N4CCN([C@H](C)c5ccccc5)CC4)c3C2=O)cc1OC [Cpd 128, (R)-1,3-dimethyl-1H-pyrazole-4-sulfonic acid (4-(3,4-dimethoxy-phenyl)-4-{1,3-dioxo-4-[4-(1R)-(1-phenyl-ethyl)-piperazin-1-yl]-1,3-dihydro-isoindol-2-yl}-butyl)-amide] | 280 | 8.9 | 110 | – |
| COc1ccc([C@@H](CCCNS(=O)(=O)O)N2C(=O)c3cccc(N4CCN([C@H](C)c5ccccc5)CC4)c3C2=O)cc1OC [Cpd 129, (R)-(4-(3,4-dimethoxy-phenyl)-4-{1,3-dioxo-4-[4-(1R)-(1-phenyl-ethyl)-piperazin-1-yl]-1,3-dihydro-isoindol-2-yl}-butyl)-sulfamic acid] | 160 | 9.4 | 9 | – |
| COc1ccc([C@@H](CCCNS(=O)(=O)c2cnn(C)c2C)N2C(=O)c3cccc(N4CCN([C@H](C)c5ccccc5)CC4)c3C2=O)cc1OC [Cpd 132, (R)-1,5-dimethyl-1H-pyrazole-4-sulfonic acid (4-(3,4-dimethoxy-phenyl)-4-{1,3-dioxo-4-[4-(1R)-(1-phenyl-ethyl)-piperazin-1-yl]-1,3-dihydro-isoindol-2-yl}-butyl)-amide] | 340 | 9.8 | 72 | – |
| COc1ccc([C@@H](CCCNS(=O)(=O)c2cnn(C)c2)N2C(=O)c3cccc(N4CCN([C@H](C)c5ccccc5)CC4)c3C2=O)cc1OC [Cpd 136, (R)-1-methyl-1H-pyrazole-4-sulfonic acid (4-(3,4-dimethoxy-phenyl)-4-{1,3-dioxo-4-[4-(1R)-(1-phenyl-ethyl)-piperazin-1-yl]-1,3-dihydro-isoindol-2-yl}-butyl)-amide] | 360 | 6.2 | 61 | – |
| COc1ccc([C@@H](CCCNS(=O)(=O)c2cnoc2C)N2C(=O)c3cccc(N4CCN([C@H](C)c5ccccc5)CC4)c3C2=O)cc1OC [Cpd 138, (R)-5-methyl-isoxazole-4-sulfonic acid (4-(3,4-dimethoxy-phenyl)-4-{1,3-dioxo-4-[4-(1R)-(1-phenyl-ethyl)-piperazin-1-yl]-1,3-dihydro-isoindol-2-yl}-butyl)-amide] | 130 | 20 | – | 32 |
